Laboratory results: patent US20180353462A1, “[…] AGENTS […] FLAVONOID DERIVATIVES TARGETING KINASES, SIRTUINS AND ONCOGENIC AGENTS FOR THE TREATMENT OF CANCERS” (priority 2015, published 2018)

Legend:
UACC-62 (Melanoma) = experiment: WST-1 anticancer cell proliferation assay, UACC-62; format: cell-based; conditions: 72 hours
Procedure: (§1) Bioactivity of the above-described compounds has been verified by an anticancer cell proliferation assay using the WST-1 (4-[3-(4-iodophenyl)-2-(4-nitrophenyl)-2H-5-tetrazolio]-1, 3-benzene disulfonate) colorimetric assay by Roche Life Sciences®. Anticancer activity was tested against several standard cancer cell lines including brain, breast, Kaposi sarcoma, leukemia, lung, melanoma, tenosynovial giant cell tumor, ovarian, pancreatic, colon and prostate cancer. Cells were trypsinized and plated into 96 well plates in 50 μl of media and incubated overnight. The next day approximately 18 hours after plating, 50 μl of media containing the required flavonoid-based pharmaceutical composition was added per well. Cells were plated at a density so that 72 hours post drug addition, the cells will be in log phase (500)-2000 cells/well). The compounds and extracts were solubilized in Dimethyl sulfoxide (DMSO). The cells are allowed to proliferate for 72 hours 37° C. in humidified atmosphere of 5% CO2. The experiment is terminated using WST-1 (Roche®) 10 μl per well and absorbance is read at 450 nm %690 nm. The effect of drugs on growth is assessed as percent of cell viability. The IC50 values were determined from the extract dose versus control growth curves using Graphpad Prism® software. All experiments were carried out in duplicate and the mean results determined.

Aurora A = target: T1, Aurora A (Homo sapiens, UniProt O14965); experiment: Kinase competition binding assay, Aurora A; conditions: Table 1 kinase panel
T1 construct: made in house
T1 sequence (O14965 1-403): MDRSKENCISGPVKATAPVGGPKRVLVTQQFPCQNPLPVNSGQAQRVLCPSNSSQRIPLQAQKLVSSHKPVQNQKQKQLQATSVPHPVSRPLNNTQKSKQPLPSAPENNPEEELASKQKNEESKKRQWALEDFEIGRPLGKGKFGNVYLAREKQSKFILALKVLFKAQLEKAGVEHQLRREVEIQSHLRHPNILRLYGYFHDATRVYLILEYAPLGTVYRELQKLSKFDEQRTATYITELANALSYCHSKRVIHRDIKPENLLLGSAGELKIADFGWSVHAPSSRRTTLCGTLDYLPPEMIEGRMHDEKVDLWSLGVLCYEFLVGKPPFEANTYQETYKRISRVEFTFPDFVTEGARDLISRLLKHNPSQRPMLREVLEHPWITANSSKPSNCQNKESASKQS
Procedure: (§2) Cannabis flavonoids and their analogs were subjected to kinase inhibition assay. The compounds were first screened at a single concentration of 10 μM in the primary assay. […]. To determine the kd or IC50 values, competition binding assays were established, authenticated and executed as described previously. Fabian et al., “A Small Molecule-Kinase Interaction Map For Clinical Kinase Inhibitors.”, Nat Biotechnol, 23(3):329-36, Epub (2005). See also, Karaman et al., “A Quantitative Analysis Of Kinase Inhibitor Selectivity”, Nat. Biotechnol. […] For most assays, kinases were fused to T7 phage strains (Fabian, supra) and for the other assays, kinases were produced in HEK-293 cells after which they were tagged with DNA for quantitative PCR detection. In general, full-length constructs were used for small, single domain kinases, and catalytic domain constructs for large multi-domain kinases. The binding assays utilized streptavidin-coated magnetic beads treated with biotinylated small molecule ligands for 30 minutes at room temperature which generated affinity resins for the kinase assays. The liganded beads were blocked with excess biotin and washed with blocking buffer (SeaBlock (Pierce), 1% BSA, 0.05% Tween 20, 1 mM DTT) to remove unbound ligand and to reduce non-specific phage binding. […] Test compounds were prepared as 40× stocks in 100% DMSO and diluted directly into the assay (Final DMSO concentration=2.5%). All reactions were performed in polypropylene 384-well plates in a final volume of 0.04 ml. […] The beads were then re-suspended in elution buffer (1×PBS, 0.05% Tween 20, 0.5 μM non-biotinylated affinity ligand) and incubated at room temperature with shaking for 30 minutes. The kinase concentration in the eluates was measured by quantitative PCR. An illustration of the kinase interaction process is presented below. Kd/IC50 values were determined using a standard dose response curve using the hill equation. Curves were fitted using a non-linear least square fit with the Levenberg-Marquardt algorithm.
(§3) The compound(s) were screened at 10 μM and results for primary screen binding interactions are reported as ‘% Ctrl’, where lower numbers indicate stronger hits in the matrix.

COLO-205 (Colon) = experiment: WST-1 anticancer cell proliferation assay, COLO-205; format: cell-based; conditions: 72 hours
Procedure: as §1

IGROV-1 (Ovarian) = experiment: WST-1 anticancer cell proliferation assay, IGROV-1; format: cell-based; conditions: 72 hours
Procedure: as §1

MiaPaca-2 (Pancreatic) = experiment: WST-1 anticancer cell proliferation assay, MiaPaca-2; format: cell-based; conditions: 72 hours
Procedure: as §1

A498 (Kidney) = experiment: WST-1 anticancer cell proliferation assay, A498; format: cell-based; conditions: 72 hours
Procedure: as §1

DLD-1 (Colon) = experiment: WST-1 anticancer cell proliferation assay, DLD-1; format: cell-based; conditions: 72 hours
Procedure: as §1

RL (Lymphoma) = experiment: WST-1 anticancer cell proliferation assay, RL; format: cell-based; conditions: 72 hours
Procedure: as §1

MCF-7 (Breast) = experiment: WST-1 anticancer cell proliferation assay, MCF-7; format: cell-based; conditions: 72 hours
Procedure: as §1

c-Kit(Y823D) = target: T2, c-Kit(Y823D) (Homo sapiens, UniProt P10721, Y823D); experiment: Kinase competition binding assay, c-Kit(Y823D); conditions: Table 1 kinase panel
T2 construct: made in house
T2 sequence (P10721 26-976 Y823D): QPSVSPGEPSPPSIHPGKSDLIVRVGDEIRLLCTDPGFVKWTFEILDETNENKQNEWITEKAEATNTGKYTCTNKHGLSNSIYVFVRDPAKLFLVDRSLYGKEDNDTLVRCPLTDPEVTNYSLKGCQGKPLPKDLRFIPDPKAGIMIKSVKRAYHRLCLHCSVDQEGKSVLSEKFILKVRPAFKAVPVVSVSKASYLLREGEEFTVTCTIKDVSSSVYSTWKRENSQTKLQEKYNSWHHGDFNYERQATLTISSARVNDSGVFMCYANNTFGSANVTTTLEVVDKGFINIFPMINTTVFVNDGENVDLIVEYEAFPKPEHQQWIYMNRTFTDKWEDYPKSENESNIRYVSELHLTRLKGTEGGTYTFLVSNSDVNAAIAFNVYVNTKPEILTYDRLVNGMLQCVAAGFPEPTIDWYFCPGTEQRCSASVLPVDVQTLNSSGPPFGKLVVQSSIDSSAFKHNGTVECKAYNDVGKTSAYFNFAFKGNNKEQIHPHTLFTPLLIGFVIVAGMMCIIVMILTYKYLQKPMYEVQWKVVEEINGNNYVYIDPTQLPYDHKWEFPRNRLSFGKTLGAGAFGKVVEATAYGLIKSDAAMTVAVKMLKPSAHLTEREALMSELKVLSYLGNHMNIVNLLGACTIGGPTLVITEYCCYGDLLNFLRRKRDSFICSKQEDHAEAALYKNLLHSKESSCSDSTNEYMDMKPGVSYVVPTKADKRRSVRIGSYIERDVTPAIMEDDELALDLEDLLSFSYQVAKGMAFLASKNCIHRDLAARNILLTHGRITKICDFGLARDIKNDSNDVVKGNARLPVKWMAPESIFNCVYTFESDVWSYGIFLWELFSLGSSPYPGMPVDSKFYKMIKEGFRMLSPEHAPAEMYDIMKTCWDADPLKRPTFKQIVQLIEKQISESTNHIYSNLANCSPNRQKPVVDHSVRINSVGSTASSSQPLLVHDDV
Procedure: as §2, §3

HeLa (cervical) = experiment: WST-1 anticancer cell proliferation assay, HeLa; format: cell-based; conditions: 72 hours
Procedure: as §1

BRD2 = BRD2 (Homo sapiens, UniProt P25440); experiment: Inhibition of bromodomains, BRD2; format: binding; conditions: Table 3 Bromodomain
Chain of BRD2 (P25440 whole entry): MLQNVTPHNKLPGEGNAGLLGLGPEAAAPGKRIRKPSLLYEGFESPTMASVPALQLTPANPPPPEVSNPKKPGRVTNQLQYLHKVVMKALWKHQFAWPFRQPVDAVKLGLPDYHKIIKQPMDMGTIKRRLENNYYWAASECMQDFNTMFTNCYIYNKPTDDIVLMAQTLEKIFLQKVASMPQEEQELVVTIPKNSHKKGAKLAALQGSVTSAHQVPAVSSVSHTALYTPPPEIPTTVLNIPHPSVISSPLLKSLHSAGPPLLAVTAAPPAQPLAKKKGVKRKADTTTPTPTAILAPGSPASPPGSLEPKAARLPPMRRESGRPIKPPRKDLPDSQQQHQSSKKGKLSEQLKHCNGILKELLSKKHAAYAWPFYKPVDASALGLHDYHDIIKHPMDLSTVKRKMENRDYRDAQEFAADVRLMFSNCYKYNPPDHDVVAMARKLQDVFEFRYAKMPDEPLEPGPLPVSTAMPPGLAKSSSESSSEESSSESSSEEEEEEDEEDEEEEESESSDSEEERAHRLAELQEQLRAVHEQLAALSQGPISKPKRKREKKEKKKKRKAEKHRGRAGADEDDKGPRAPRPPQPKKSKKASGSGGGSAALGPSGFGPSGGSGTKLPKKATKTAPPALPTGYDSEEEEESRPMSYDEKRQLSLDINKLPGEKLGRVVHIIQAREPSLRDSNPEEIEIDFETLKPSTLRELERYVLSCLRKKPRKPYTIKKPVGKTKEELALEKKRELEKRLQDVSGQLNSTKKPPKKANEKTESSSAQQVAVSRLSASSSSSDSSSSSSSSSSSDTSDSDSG
Description: (§4) Inhibition of Sirtuins, Matrix Metalloproteinase, Bromodomains was Also Confirmed Using Standard Protocols and the Results are Present in Table 2.

U2-OS (Bone) = experiment: WST-1 anticancer cell proliferation assay, U2-OS; format: cell-based; conditions: 72 hours
Procedure: as §1

BRD4 = BRD4 (Homo sapiens, UniProt O60885); experiment: Inhibition of bromodomains, BRD4; format: binding; conditions: Table 3 Bromodomain
Description: as §4

MOLT-4 (Leukemia) = experiment: WST-1 anticancer cell proliferation assay, MOLT-4; format: cell-based; conditions: 72 hours
Procedure: as §1

HC-1 (Leukemia) = experiment: WST-1 anticancer cell proliferation assay, HC-1; format: cell-based; conditions: 72 hours
Procedure: as §1

MMP-2 = MMP-2 (Homo sapiens, UniProt P08253); experiment: Inhibition of matrix metalloproteinase, MMP-2; format: biochemical; conditions: Table 3 Matrix metalloproteinase
Chain of MMP-2 (P08253 110-660): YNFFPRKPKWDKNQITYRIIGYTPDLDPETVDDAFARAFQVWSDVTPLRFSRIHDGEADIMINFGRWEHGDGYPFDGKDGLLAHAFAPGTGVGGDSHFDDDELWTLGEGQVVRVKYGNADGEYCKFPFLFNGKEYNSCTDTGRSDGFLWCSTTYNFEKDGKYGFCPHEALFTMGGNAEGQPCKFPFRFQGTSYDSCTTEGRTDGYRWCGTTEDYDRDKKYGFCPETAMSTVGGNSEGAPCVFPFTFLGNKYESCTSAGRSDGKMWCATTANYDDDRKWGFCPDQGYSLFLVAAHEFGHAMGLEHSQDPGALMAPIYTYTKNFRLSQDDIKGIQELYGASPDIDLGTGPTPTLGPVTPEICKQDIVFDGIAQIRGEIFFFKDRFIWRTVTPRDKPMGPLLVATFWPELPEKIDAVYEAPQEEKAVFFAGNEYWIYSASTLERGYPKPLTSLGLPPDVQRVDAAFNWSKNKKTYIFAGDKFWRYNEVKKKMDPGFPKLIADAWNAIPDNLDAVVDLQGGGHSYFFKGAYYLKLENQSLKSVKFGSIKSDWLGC
Description: as §4

CMK (leukemia) = experiment: WST-1 anticancer cell proliferation assay, CMK; format: cell-based; conditions: 72 hours
Procedure: as §1

BRD3 = BRD3 (Homo sapiens, UniProt Q15059); experiment: Inhibition of bromodomains, BRD3; format: binding; conditions: Table 3 Bromodomain
Chain of BRD3 (Q15059 whole entry): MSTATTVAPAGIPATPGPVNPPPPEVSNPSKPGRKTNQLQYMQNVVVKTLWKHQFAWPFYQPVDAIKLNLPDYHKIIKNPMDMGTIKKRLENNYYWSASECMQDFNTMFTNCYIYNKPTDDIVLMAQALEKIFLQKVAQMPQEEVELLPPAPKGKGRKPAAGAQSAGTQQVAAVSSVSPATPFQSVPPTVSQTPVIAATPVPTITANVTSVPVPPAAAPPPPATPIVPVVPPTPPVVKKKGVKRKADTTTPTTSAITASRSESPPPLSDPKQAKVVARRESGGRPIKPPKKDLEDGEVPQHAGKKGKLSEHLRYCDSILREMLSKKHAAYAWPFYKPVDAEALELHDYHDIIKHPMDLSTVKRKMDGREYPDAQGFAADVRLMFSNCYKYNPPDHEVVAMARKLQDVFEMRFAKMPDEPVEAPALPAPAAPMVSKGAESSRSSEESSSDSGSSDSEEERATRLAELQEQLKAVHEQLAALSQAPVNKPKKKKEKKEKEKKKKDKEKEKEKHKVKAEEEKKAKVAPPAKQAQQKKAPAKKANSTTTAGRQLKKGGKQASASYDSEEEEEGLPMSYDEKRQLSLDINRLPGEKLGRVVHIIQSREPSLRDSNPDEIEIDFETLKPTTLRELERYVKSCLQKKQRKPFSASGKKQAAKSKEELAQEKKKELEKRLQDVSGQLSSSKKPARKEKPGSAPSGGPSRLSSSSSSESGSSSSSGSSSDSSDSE
Description: as §4

SNU-16 (Stomach) = experiment: WST-1 anticancer cell proliferation assay, SNU-16; format: cell-based; conditions: 72 hours
Procedure: as §1

SMILES	IC50 (UACC-62 (Melanoma)) [µM]	IC50 (Aurora A) [nM]	IC50 (COLO-205 (Colon)) [µM]	IC50 (IGROV-1 (Ovarian)) [µM]	IC50 (MiaPaca-2 (Pancreatic)) [µM]	IC50 (A498 (Kidney)) [µM]	IC50 (DLD-1 (Colon)) [µM]	IC50 (RL (Lymphoma)) [µM]	IC50 (MCF-7 (Breast)) [µM]	IC50 (c-Kit(Y823D)) [nM]	IC50 (HeLa (cervical)) [µM]	IC50 (BRD2) [µM]	IC50 (U2-OS (Bone)) [µM]	IC50 (BRD4) [µM]	IC50 (MOLT-4 (Leukemia)) [µM]	IC50 (HC-1 (Leukemia)) [µM]	IC50 (MMP-2) [µM]	IC50 (CMK (leukemia)) [µM]	IC50 (BRD3) [µM]	IC50 (SNU-16 (Stomach)) [µM]
COc1cc(-c2cc(=O)c3c(O)c(C/C=C(\C)CCC=C(C)C)c(O)cc3o2)ccc1O [FBL-03A]	27	730	27	29	16	17	15	5.9	17	> 20000										
COc1cc(-c2cc(=O)c3c(O)c(CC=C(C)C)c(O)cc3o2)ccc1O [FBL-03B]		12								244	10.4	9.52	19.4	10.4	13.2	29.7	115	11.6	7.05	15
COc1cc(-c2cc(=O)c3c(O)cc(O)c(C/C=C(\C)CCC=C(C)C)c3o2)ccc1O [FBL-03C]	14		17	15	9.5	14	13	12	12	> 20000										
COc1ccc(-c2cc(=O)c3c(O)c(C/C=C(\C)CCC=C(C)C)c(O)cc3o2)cc1OC [FBL-03D]		> 30000								> 30000										
COc1cc(-c2cc(=O)c3c(O)cc(O)c(CC=C(C)C)c3o2)ccc1O [FBL-03G]		1090								84	2.53	12	8.7	6.14	20	5	6.64	1.78	8.69	4.09
